Measured values published in the SangsterLogP compilation.

logP	Compound
1.81	O=C(O)CCCCO/N=C(/c1ccnnc1)c1cccc(C(F)(F)F)c1
2.27	O=C(O)CCCCCO/N=C(/c1ccnnc1)c1cccc(C(F)(F)F)c1
2.49	O=C(O)CCCCCO/N=C(\c1cccc(C(F)(F)F)c1)c1ccncn1
1.07	O=C(O)CCCCCO/N=C(\c1cncnc1)c1cccc(C(F)(F)F)c1
0.63	O=C(O)CCCCO/N=C(\c1cncnc1)c1cccc(C(F)(F)F)c1
2.56	O=C(O)CCCCCO/N=C(\c1cccc(C(F)(F)F)c1)c1cnccn1
2.19	O=C(O)CCCCCO/N=C(\c1cccc(C(F)(F)F)c1)c1cccnn1

Continued, compound first:

Compound	logP
O=C(O)CCCO/N=C(\c1ccccc1)c1ccncn1	-0.47
O=C(O)CCCCON=C(c1cccc(C(F)(F)F)c1)c1ccncn1	1.74
O=C(O)CCCCO/N=C(\c1ccccc1)c1ncccn1	0.5
O=C(O)CCCCCO/N=C(/c1cccc(C(F)(F)F)c1)c1ncccn1	1.94
O=C(O)CCCCO/N=C(\c1cccc(C(F)(F)F)c1)c1cnccn1	1.08
O=C(O)CCCCO/N=C(\c1cccc(C(F)(F)F)c1)c1ncccn1	1.53
O=C(O)CCCO/N=C(/c1ccccc1)c1cncnc1	-0.38
O=C(O)CCCCO/N=C(\c1ccccc1)c1ccncn1	-0.19
O=C(O)CCCCO/N=C(\c1ccccc1)c1cncnc1	-0.21
O=C(O)CCCO/N=C(\c1ccccc1)c1ncccn1	0.36
O=C(O)CCCCCO/N=C(/c1ccccc1)c1ccncn1	0.08
O=C(O)CCCCCON=C(c1ccccc1)c1ncccn1	1.07
